Values quoted from earlier work, collected in US20260193295A1, “CILAGICIN COMPOUNDS AND METHODS OF USE THEREOF” (priority 2022, published 2026).
In brackets after ≈: the same amount, converted by molar mass. Where two headings read alike, the source gives them in different places.

System: vancomycin-resistant Enterococci clinical isolates
Settings: cited from earlier work
[1] = Enterococci clinical isolate code 781
[2] = Enterococci clinical isolate code 782
[3] = Enterococci clinical isolate code 783
[4] = Enterococci clinical isolate code 784
[5] = Enterococci clinical isolate code 785
[6] = Enterococci clinical isolate code 786
[7] = Enterococci clinical isolate code 787
[8] = Enterococci clinical isolate code 788
[9] = Enterococci clinical isolate code 789
[10] = Enterococci clinical isolate code 790
[11] = Enterococci clinical isolate code 791
[12] = Enterococci clinical isolate code 792
[13] = Enterococci clinical isolate code 793
[14] = Enterococci clinical isolate code 794
[15] = Enterococci clinical isolate code 795
[16] = Enterococci clinical isolate code 796
[17] = Enterococci clinical isolate code 797
[18] = Enterococci clinical isolate code 798
[19] = Enterococci clinical isolate code 799
[20] = Enterococci clinical isolate code 800
[21] = Enterococci clinical isolate code 801
[22] = Enterococci clinical isolate code 802
[23] = Enterococci clinical isolate code 803
[24] = Enterococci clinical isolate code 804
[25] = Enterococci clinical isolate code 805
[26] = Enterococci clinical isolate code 806
[27] = Enterococci clinical isolate code 807
[28] = Enterococci clinical isolate code 808
[29] = Enterococci clinical isolate code 809
[30] = Enterococci clinical isolate code 810

| SMILES | MIC [1] | MIC [2] | MIC [3] | MIC [4] | MIC [5] | MIC [6] | MIC [7] | MIC [8] | MIC [9] | MIC [10] | MIC [11] | MIC [12] | MIC [13] | MIC [14] | MIC [15] | MIC [16] | MIC [17] | MIC [18] | MIC [19] | MIC [20] | further results |
| --- | --- | --- | --- | --- | --- | --- | --- | --- | --- | --- | --- | --- | --- | --- | --- | --- | --- | --- | --- | --- | --- |
| CC1(C)S[C@@H]2[C@H](NC(=O)[C@H](N)c3ccccc3)C(=O)N2[C@H]1C(=O)O [Ampicillin] | 1 µg/mL (≈ 2.86 µM) | 1 µg/mL (≈ 2.86 µM) | 64 µg/mL (≈ 183 µM) | 1 µg/mL (≈ 2.86 µM) | 2 µg/mL (≈ 5.72 µM) | 0.5 µg/mL (≈ 1.43 µM) | 8 µg/mL (≈ 22.9 µM) | 1 µg/mL (≈ 2.86 µM) | 0.12 µg/mL (≈ 0.343 µM) | 64 µg/mL (≈ 183 µM) | 1 µg/mL (≈ 2.86 µM) | 64 µg/mL (≈ 183 µM) | 1 µg/mL (≈ 2.86 µM) | 64 µg/mL (≈ 183 µM) | 2 µg/mL (≈ 5.72 µM) | 2 µg/mL (≈ 5.72 µM) | 1 µg/mL (≈ 2.86 µM) | 1 µg/mL (≈ 2.86 µM) | 1 µg/mL (≈ 2.86 µM) | 1 µg/mL (≈ 2.86 µM) | MIC [21]: 1 µg/mL (≈ 2.86 µM); MIC [22]: 64 µg/mL (≈ 183 µM); MIC [23]: 128 µg/mL (≈ 366 µM); MIC [24]: 1 µg/mL (≈ 2.86 µM); MIC [25]: 1 µg/mL (≈ 2.86 µM); MIC [26]: 4 µg/mL (≈ 11.4 µM); MIC [27]: 32 µg/mL (≈ 91.6 µM); MIC [28]: 2 µg/mL (≈ 5.72 µM); MIC [29]: 0.5 µg/mL (≈ 1.43 µM); MIC [30]: 1 µg/mL (≈ 2.86 µM) |
| O=C(N[C@H](CO)[C@H](O)c1ccc([N+](=O)[O-])cc1)C(Cl)Cl [Chloramphenicol] | 8 µg/mL (≈ 24.8 µM) | >32 µg/mL | 16 µg/mL (≈ 49.5 µM) | 4 µg/mL (≈ 12.4 µM) | >32 µg/mL | 16 µg/mL (≈ 49.5 µM) | 32 µg/mL (≈ 99 µM) | 8 µg/mL (≈ 24.8 µM) | 16 µg/mL (≈ 49.5 µM) | 8 µg/mL (≈ 24.8 µM) | 8 µg/mL (≈ 24.8 µM) | 4 µg/mL (≈ 12.4 µM) | 8 µg/mL (≈ 24.8 µM) | 8 µg/mL (≈ 24.8 µM) | 32 µg/mL (≈ 99 µM) | 8 µg/mL (≈ 24.8 µM) | 8 µg/mL (≈ 24.8 µM) | 16 µg/mL (≈ 49.5 µM) | >32 µg/mL | 16 µg/mL (≈ 49.5 µM) | MIC [21]: 8 µg/mL (≈ 24.8 µM); MIC [22]: 8 µg/mL (≈ 24.8 µM); MIC [23]: 8 µg/mL (≈ 24.8 µM); MIC [24]: >32 µg/mL; MIC [25]: 8 µg/mL (≈ 24.8 µM); MIC [26]: 8 µg/mL (≈ 24.8 µM); MIC [27]: 32 µg/mL (≈ 99 µM); MIC [28]: 8 µg/mL (≈ 24.8 µM); MIC [29]: 8 µg/mL (≈ 24.8 µM); MIC [30]: 8 µg/mL (≈ 24.8 µM) |
